Data: US11679107B2 (Eisai R&D Management Co., Ltd., priority 2018, dated 2023)
Where two headings read alike, the source gives them in different places.

How the values were obtained:
SF3b complexes = molecular target: T1, SF3b complexes (Homo sapiens, UniProt O75533+Q7RTV0); assay: Scintillation proximity assay (SPA) with [3H]-labelled pladienolide probe; format: binding; settings: SF3B1 (WT); geometric mean; read-out: SPA-ATS GMean IC50 (nM) SF3B1 (WT)
T1 construct: endogenous in cells; host or cells: Nuclear extracts; A HeLa S3 extract preparation is described for the in vitro splicing assay
Method in brief: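 SF3b complexes captured from nuclear extracts on anti-SF3B1 antibody SPA beads; test compounds pre-incubated 30 min before 2.5 nM [3H]-pladienolide probe added, then 30 min incubation. Bound probe read by scintillation; values from non-linear regression of concentration–response curves.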

[1] = test system: Ad2 variant pre-mRNAs spliced in HeLa S3 nuclear extracts; assay: In vitro splicing assay (IVS), RT-qPCR of spliced product; format: biochemical; settings: for IC50: geometric mean; for Ratio Ad2.1/2.2: ratio of IVS IC50 Ad2.1 to Ad2.2
Method in brief: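 Read-out is one-step TaqMan RT-qPCR of spliced Ad2 mRNA with Ftz as reference, normalized to DMSO and fit by non-linear regression. Reactions held HeLa S3 nuclear extract, 2 ng Ad2-derived pre-mRNA and test compound, with 15 min preincubation. Splicing was started with ATP-containing activation buffer and run 90 min at 30 °C.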

[2] = test system: Panc 05.04 cells (SF3b K700E mutant); assay: Cell proliferation and viability, CellTiter-Glo, 72 hours; format: cell-based; settings: for GI50: geometric mean
Method in brief: (§1)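 ATP luminescence (CellTiter-Glo) was measured 72 h after treatment with compound at 10 μM–100 pM (11 points, half-log) in 0.1% DMSO. The Panc line was grown in RPMI-1640 plus insulin and 15% FBS, the other in 10% FBS. Data were normalised to time zero and vehicle controls, where −100% is cidal and 0% static.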

[3] = test system: NCI-H1568 cells (high MCL1); assay: as above; format: cell-based; settings: for GI50: geometric mean
Method in brief: as §1

[4] = Ad2.1 pre-mRNA substrate, read-out: qPCR-IVS-ATS GMean IC50 (nM) Ad2.1
[5] = Ad2.2 pre-mRNA substrate, read-out: qPCR-IVS-ATS GMean IC50 (nM) Ad2.2
[6] = 72 h, PANC0504.1, -100% = cidal, 0% = static, 100% = uninhibited growth
[7] = Panc 05.04, read-out: CTGlo-ATS GMean GI50 (nM) 72 h PANC0504.1, 72 h, PANC0504.1
[8] = 72 h, NCIH1568.1, -100% = cidal, 0% = static, 100% = uninhibited growth
[9] = NCI-H1568, read-out: CTGlo-ATS GMean GI50 (nM) 72 h NCIH1568.1, 72 h, NCIH1568.1
[10] = PANC0504.1 cells, 72 h, −100% cidal, 0% static, 100% maximal growth
[11] = Panc 05.04, read-out: CTGlo-ATS GMean GI50 (nM) 72 h PANC0504.1, PANC0504.1 cells, 72 h
[12] = NCI-H1568, read-out: CTGlo-ATS GMean GI50 (nM) 72 h NCIH1568.1, NCIH1568.1 cells, 72 h
[13] = NCIH1568.1 cells, 72 h, −100% cidal, 0% static, 100% maximal growth

Row | SMILES | IC50 (SF3b complexes) | IC50 [1, 4] | IC50 [1, 5] | Ratio Ad2.1/2.2 [1] | CTGlo-ATS Mean MinResponse % 72 h PANC0504.1 [2, 6] | GI50 [2, 7] | CTGlo-ATS Mean MinResponse % 72 h NCIH1568.1 [3, 8] | GI50 [3, 9] | CTGlo-ATS Mean MinResponse % 72 h PANC0504.1 [2, 10] | GI50 [2, 11] | GI50 [3, 12] | CTGlo-ATS Mean MinResponse % 72 h NCIH1568.1 [3, 13] | GI50 ([2]; read-out: CTGlo-ATS GMean GI50 (nM) 72 h PANC0504.1, PANC0504.1 cells, 72 h) | GI50 ([3]; read-out: CTGlo-ATS GMean GI50 (nM) 72 h NCIH1568.1, NCIH1568.1 cells, 72 h) | GI50 ([2]; Panc 05.04, 72 h, read-out: CTGlo-ATS GMean GI50 (nM) 72 h PANC0504.1, PANC0504.1 cells, 72 h) | GI50 ([3]; NCI-H1568, 72 h, read-out: CTGlo-ATS GMean GI50 (nM) 72 h NCIH1568.1, NCIH1568.1 cells, 72 h)
1 | C/C(=C\c1cc(F)cc(NS(=O)(=O)N(C)C)c1)[C@H]1OC(=O)C[C@H](O)CC[C@H](C)[C@@H](OC(=O)N2CCN(C)CC2)/C=C/[C@@H]1C [Compound 248, [(2S,3S,4E,6R,7S,10R)-2-[(E)-1-[3-(dimethylsulfamoylamino)-5-fluorophenyl]prop-1-en-2-yl]-10-hydroxy-3,7-dimethyl-12-oxo-1-oxacyclododec-4-en-6-yl] 4-methylpiperazine-1-carboxylate] | 6.62 nM | > 25000 nM | 76.4 nM | 327.274 | −92.622% | 75.8 nM | −46.753% | 97 nM | – | – | – | – | – | – | – | –
2 | C/C(=C\c1cc(F)cc(N2CCOCC2)c1)[C@H]1OC(=O)C[C@H](O)CC[C@H](C)[C@@H](OC(=O)N2CCN(C(C)C)CC2)/C=C/[C@@H]1C [Compound 24] | 5.19 nM | 192 nM | 30.7 nM | – | – | – | – | – | −89.895% | 8.29 nM | 10.9 nM | −67.459% | – | – | – | –
3 | C/C(=C\c1ccc2c(C)nn(C)c2c1)[C@H]1OC(=O)C[C@H](O)CC[C@H](C)[C@@H](OC(=O)N2CCN(C)CC2)/C=C/[C@@H]1C [Compound 50] | 1.46 nM | 17900 nM | 60.2 nM | – | – | – | – | – | −82.642% | 28.3 nM | 43.6 nM | −65.255% | – | – | – | –
4 | C/C(=C\c1cccc(S(=O)(=O)N2CCC(F)(F)CC2)c1)[C@H]1OC(=O)C[C@H](O)CC[C@H](C)[C@@H](OC(=O)N2CCN(C)CC2)/C=C/[C@@H]1C [Compound 202, [(2S,3S,4E,6R,7S,10R)-2-[(E)-1-[3-(4,4-difluoropiperidin-1-yl)sulfonylphenyl]prop-1-en-2-yl]-10-hydroxy-3,7-dimethyl-12-oxo-1-oxacyclododec-4-en-6-yl] 4-methylpiperazine-1-carboxylate] | 14.1 nM | 4470 nM | 25.2 nM | 177.387 | −93.824% | 24.7 nM | −59.083% | 29.4 nM | – | – | – | – | – | – | – | –
5 | C/C(=C\c1cc(F)c2nnn(CC3CC3)c2c1)[C@H]1OC(=O)C[C@H](O)CC[C@H](C)[C@@H](OC(=O)N2CCN(C)CC2)/C=C/[C@@H]1C [Compound 137] | 1.21 nM | 27.6 nM | 12.1 nM | – | – | – | – | – | −86.584% | 1.61 nM | 1.17 nM | −81.149% | – | – | – | –
6 | C/C(=C\c1cc(S(=O)(=O)N2CCC(O)CC2)ccc1F)[C@H]1OC(=O)C[C@H](O)CC[C@H](C)[C@@H](OC(=O)N2CCN(C)CC2)/C=C/[C@@H]1C [Compound 91, [(2S,3S,4E,6R,7S,10R)-2-[(E)-1-[2-fluoro-5-(4-hydroxypiperidin-l-yl)sulfonylphenyl]prop-1-en-2-yl]-10-hydroxy-3,7-dimethyl-12-oxo-1-oxacyclododec-4-en-6-yl] 4-methylpiperazine-1-carboxylate] | 6.04 nM | 14.7 nM | 18.9 nM | – | – | – | – | – | −90.776% | 4.64 nM | 6.86 nM | −64.491% | – | – | – | –
7 | C/C(=C\c1cc(F)c2c(c1)nnn2CC1CC1)[C@H]1OC(=O)C[C@H](O)CC[C@H](C)[C@@H](OC(=O)N2CCN(C)CC2)/C=C/[C@@H]1C [Compound 139] | 4.32 nM | > 25000 nM | 93.2 nM | – | – | – | – | – | −21.195% | 240 nM | 142 nM | −61.022% | – | – | – | –
8 | C/C(=C\c1cc(F)cc(N2CCOC[C@H]2C)c1)[C@H]1OC(=O)C[C@H](O)CC[C@H](C)[C@@H](OC(=O)N2CCN(C)CC2)/C=C/[C@@H]1C [Compound 75] | 2.15 nM | 19 nM | 15.4 nM | – | – | – | – | – | −81.995% | 3.69 nM | 3.58 nM | −85.064% | – | – | – | –
9 | C/C(=C\c1cc(F)cc(N2CCOCC2)c1)[C@H]1OC(=O)C[C@H](O)CC[C@H](C)[C@@H](OC(=O)N2CC[C@H](N(C)C)C2)/C=C/[C@@H]1C [Compound 244, [(2S,3S,4E,6R,7S,10R)-2-[(E)-1-(3-fluoro-5-morpholin-4-ylphenyl)prop-1-en-2-yl]-10-hydroxy-3,7-dimethyl-12-oxo-1-oxacyclododec-4-en-6-yl] (3S)-3-(dimethylamino)pyrrolidine-1-carboxylate] | 3.38 nM | 3580 nM | 38.5 nM | 93.018 | −95.630% | 27.6 nM | −65.165% | 20.2 nM | – | – | – | – | – | – | – | –
10 | C/C(=C\c1cc(F)cc(N2CCOCC2)c1)[C@H]1OC(=O)C[C@H](O)CC[C@@](C)(O)C(OC(=O)N2CCN(C)CC2)/C=C/[C@@H]1C (stereo in doubt) [Compound 86, [(2S,3S,4E,6R,7R,10R)-2-[(E)-1-(3-fluoro-5-morpholin-4-ylphenyl)prop-1-en-2-yl]-7,10-dihydroxy-3,7-dimethyl-12-oxo-1-oxacyclododec-4-en-6-yl] 4-methylpiperazine-1-carboxylate] | 12.2 nM | 929 nM | 89.6 nM | – | – | – | – | – | −93.814% | – | – | −39.164% | 34.8 nM | 32.5 nM | – | –
11 | C/C(=C\c1ccc2cnn(C)c2c1)[C@H]1OC(=O)C[C@H](O)CC[C@H](C)[C@@H](OC(=O)N2CCN(C)CC2)/C=C/[C@@H]1C [Compound 55] | 2.37 nM | 19900 nM | 45.3 nM | – | – | – | – | – | −85.478% | 17.2 nM | 21.2 nM | −57.557% | – | – | – | –
12 | C/C(=C\c1cc(F)cc(N2CCC3(COC3)C2)c1)[C@H]1OC(=O)C[C@H](O)CC[C@H](C)[C@@H](OC(=O)N2CCN(C)CC2)/C=C/[C@@H]1C [Compound 33] | 5.58 nM | 28.4 nM | 27.6 nM | – | – | – | – | – | −77.334% | 10 nM | 12 nM | −73.122% | – | – | – | –
13 | C/C(=C\c1cc(F)cc(N2CCN(C(=O)C3CCOC3)CC2)c1)[C@H]1OC(=O)C[C@H](O)CC[C@H](C)[C@@H](OC(=O)N2CCN(C)CC2)/C=C/[C@@H]1C (stereo partly drawn) [Compound 143] | 3.2 nM | 19.2 nM | 17.2 nM | – | – | – | – | – | −87.719% | – | – | −84.803% | – | – | 3.67 nM | 1.75 nM
14 | C/C(=C\c1cccc(S(=O)(=O)N2CC[C@@H](O)C2)c1)[C@H]1OC(=O)C[C@H](O)CC[C@H](C)[C@@H](OC(=O)N2CCN(C)CC2)/C=C/[C@@H]1C [Compound 199, [(2S,3S,4E,6R,7S,10R)-10-hydroxy-2-[(E)-1-[3-[(3R)-3-hydroxypyrrolidin-1-yl]sulfonylphenyl]prop-1-en-2-yl]-3,7-dimethyl-12-oxo-1-oxacyclododec-4-en-6-yl] 4-methylpiperazine-1-carboxylate] | 8.99 nM | 1820 nM | 47.2 nM | 38.638 | −95.445% | 33.8 nM | −52.026% | 22.9 nM | – | – | – | – | – | – | – | –
